Test results: patent US7893070B2, “Method of treating parturient placental mammals in order to reduce maternal and/or uterine exhaustion” (priority 2005, dated 2011)

Experiments:
sows [1] = experiment: 900 mg caffeine oral paste, Velddriel research station; stillbirth and piglet mortality; assay type: in vivo, swine; conditions: 900 mg oral paste
Procedure: The method of treatment according to the present invention was further tested at the Provimi research station in Velddriel, the Netherlands, in three farrowing groups. In the Velddriel facility farrowings are not attended by (veterinary) personnel and parturition is thus not actively managed. Stillbirth and mortality rates are thus in line with commercial practices.
Sows were assigned to treatment based on parity. Overall, 27 sows served as controls and 29 were treated in accordance with the present invention when they were expected to farrow in the next 8 hours. Treated sows were administered 900 mg of caffeine comprised in a paste for oral ingestion, in accordance with the invention.

[2] = Uptake of caffeine into blood (serum) of pregnant sows
Procedure: Blood samples were collected pre-administration and at multiple time points post administration through an ear-vein catheter such that the uptake of caffeine into the blood (serum) could be modelled. Besides the caffeine level, the levels of its main metabolites paraxanthine, theophylline, and theobromine were determined.
This pool was not modelled.

sows [3] = experiment: 400 mg caffeine oral paste to sows after birth of first piglet; duration of parturition; assay type: in vivo, swine; conditions: 400 mg oral paste; controls 159 minutes
Procedure: In a second experiment, 19 sows received 400 mg of caffeine comprised in a paste for oral ingestion, in accordance with the invention, after the birth of the first piglet while 19 sows served as untreated controls.
Practically, some untreated animals delivered their litter expediently and with few problems, but there were a substantial number of mothers for whom parturition became a lengthy process.

sows [4] = experiment: Caffeine suppository to sows after birth of first piglet; indices of piglet health and birth interval; assay type: in vivo, swine
Text: In commercial swine production, typically 8% of the fetuses are stillborn, and 12% of the newborn piglets die prior to weaning (SIVA, 2005). Oxygen deprivation during the birth process is an important causal factor for both stillbirths and neonatal mortality. An indicator for oxygen deprivation is umbilical (blood) pH. This pH is typically 7.4, but upon oxygen deprivation CO2 accumulates in the blood and tissues resulting in a drop in pH. If this drop is severe enough, it will result in the death of the fetus. A moderate drop in pH may not be lethal but may inflict sufficient metabolic damage such that it affects the health and fitness of the newborn and thus its chances of survival. Measurements of umbilical (blood) pH confirmed that this pH drops as the length of parturition increases. Previous work by Randall (1971) has shown a good correlation between umbilical pH and livability of piglets (FIG. 1).
Infrared radiation temperature is another indicator of metabolic health of a mammal. A strong correlation between infrared temperature and survival chances for newborn pigs has been shown. This infrared temperature was obtained by collecting piglets at birth, immediately drying them, and measuring infrared temperature. In a first experiment, 7 sows received a caffeine-comprising suppository (1-2 mg/kg BW, or 400-600 mg) after the birth of the first piglet in a litter. The indices of piglet health as described here above were compared to those of a control group of 6 sows. […] (P=0.04).

sows [5] = experiment: 900 mg caffeine oral paste, actively managed farm in Bieganow; assay type: in vivo, swine; conditions: for increase in feed consumption of sows: vs control
Procedure: The method of treatment according to the present invention was further tested at a well-managed farm in Bieganow, Poland. In this facility farrowings are attended by (veterinary) personnel and parturition is actively managed. As a result, stillbirth rates are extremely low (0.33 piglets per litter or 3% of the piglets).
At this farm, 89 sows comprising one farrowing group were available for the test. These sows were assigned to receive either a 900 mg of caffeine containing paste in accordance with the invention or no treatment, based on parity, body condition, and historical performance. The treatment composition was administered orally to selected sows when they were expected to farrow in the next 8 hours.

[6] = Transfer of caffeine from the mother to piglets (blood at birth) and colostrum; assay type: in vivo, swine; conditions: 900 mg oral paste to sow; same time-point
Text: In order to assess whether caffeine was transferred from the mother to the piglets, blood samples were collected from several piglets at the time of birth and samples from colostrum were taken. […] The concentrations found were dependent on the time relative to dosing the treatment composition. For piglets at birth, they were roughly ¼^th the concentration in the mother at that time-point, and in milk they were roughly ⅙^th the concentration in the mother at that time-point. Values observed were in the range of 0.1 to 1.5 mg/L.

sows [7] = conditions: intravenous injection of 0.5 mg/50 kg bodyweight, cited from earlier work

| SMILES | stillborn piglets per litter (sows [1]; expected to farrow in next 8 hours, control 0.89) [piglets per litter] | piglets died or euthanized for being weak after parturition (sows [1]; control 1.15) [piglets per litter] | half-life ([2]; female, pig, in vivo) [h] | peak blood concentration, second compartment ([2]; pregnant sows, 940 mg of caffeine administered (half that for the 470 mg dose)) [µM] | time of peak blood concentration, second compartment ([2]; pregnant sows, post administration) [h] | bio-availability ([2]; pregnant sows, assuming caffeine distributed in 60% of body mass) [%] | mean time interval between the birth of the first and 10th piglet (sows [3]) [min] | increase of piglet umbilical (blood) pH (sows [4]; suppository 1-2 mg/kg BW (400-600 mg) vs control sows, P=0.03) [units] | increase of piglet infrared radiation temperature (sows [4]; suppository 1-2 mg/kg BW (400-600 mg) vs control sows, P=0.04) [°C] | numerical increase of birth interval between subsequent piglets (sows [4]; suppository, P=0.11 (control 9 minutes, P<0.01)) | difference in stillbirths between treatment groups (sows [5]; 900 mg oral paste vs no treatment) | assistance rate (sows [5]; 900 mg oral paste, control group 26%) [%] | sows requiring medical care post-farrowing (sows [5]; 900 mg oral paste, control group seven sows (one died)) | increase in feed consumption of sows (sows [5]; first day post farrowing) [%] | increase in feed consumption of sows (sows [5]; first five days post farrowing) [%] | piglets heavier than controls at weaning (sows [5]; piglets from treated sows) [%] | caffeine concentration in milk relative to the concentration in the mother [6] | caffeine concentration in piglets at birth relative to the concentration in the mother [6] | stillbirth rate (sows [7]; reduced from 8.3) [%] | rate of deliveries lasting more than six hours (sows [7]; reduced from 14.5) [%] |
| --- | --- | --- | --- | --- | --- | --- | --- | --- | --- | --- | --- | --- | --- | --- | --- | --- | --- | --- | --- | --- |
| Cn1c(=O)c2c(ncn2C)n(C)c1=O [caffeine] | 0.31 | 0.48 | ~22 | ~5 | 8 | 44 | 110 | 0.044±0.020 | 0.60±0.29 | 3.6 minutes for each hour into parturition | no statistically significant differences | 18 | no sows required medical care | 14 | 10 | 9 | roughly ⅙ | roughly ¼ | – | – |
| CC(C)NCC(O)COc1cccc2[nH]c3ccccc3c12 (centres unmarked) [carazolol] | – | – | – | – | – | – | – | – | – | – | – | – | – | – | – | – | – | – | 7.1 | 11.0 |
